{"source": "patent US20230406831A1", "about": "“COMPOUNDS AND METHODS OF INHIBITING BACTERIAL CHAPERONIN SYSTEMS” (THE TRUSTEES OF INDIANA UNIVERSITY, priority 2020, published 2023)", "key": {"HSP60/10": {"biological_target": "T1, HSP60/10 (Homo sapiens, UniProt P10809)", "T1 construct": "octa-Histidine (His8) tag, TEV-cleavable (N, cleaved yes); made in house; host or cells: HSP60 in Rosetta 2 (DE3) E. coli; HSP10 in Rosetta 2 (DE3) pLysS", "T1 sequence (P10809 27-573)": "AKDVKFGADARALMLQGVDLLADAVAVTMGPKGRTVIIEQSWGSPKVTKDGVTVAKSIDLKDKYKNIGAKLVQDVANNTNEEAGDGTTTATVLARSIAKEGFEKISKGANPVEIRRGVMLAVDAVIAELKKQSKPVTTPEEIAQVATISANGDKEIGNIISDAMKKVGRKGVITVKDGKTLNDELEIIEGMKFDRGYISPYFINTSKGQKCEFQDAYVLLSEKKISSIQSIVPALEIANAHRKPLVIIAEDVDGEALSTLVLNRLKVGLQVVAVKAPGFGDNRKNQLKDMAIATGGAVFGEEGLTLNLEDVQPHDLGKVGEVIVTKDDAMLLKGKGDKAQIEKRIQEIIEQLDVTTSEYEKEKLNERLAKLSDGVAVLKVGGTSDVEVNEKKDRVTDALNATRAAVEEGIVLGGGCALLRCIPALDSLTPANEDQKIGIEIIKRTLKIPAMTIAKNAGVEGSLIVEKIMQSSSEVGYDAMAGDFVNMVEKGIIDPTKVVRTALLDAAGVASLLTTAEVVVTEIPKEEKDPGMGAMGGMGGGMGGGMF", "test": "HSP60/10-mediated dMDH refolding assay", "format": "biochemical", "conditions": "Table 3; 37° C., 1 mM ATP; read-out: Biochemical Assay IC50 HSP60/10-dMDH Refolding", "outline": "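Pre-formed chaperonin–denatured pig heart MDH complexes (50 nM GroEL or HSP60, 60 nM GroES or HSP10, 12 nM dMDH) refolded with 1 mM ATP and compound (100 μM–46 nM) at 37 °C, ~20-40 min for GroEL/ES or ~40-60 min for HSP60/10. After EDTA quench, MDH activity was read as NADH loss at A340. IC50 came from variable-slope regression.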"}, "native MDH": {"biological_target": "T2, native MDH (Sus scrofa, UniProt P00346)", "T2 construct": "soluble pig heart MDH from Roche, product #10127248001; purchased Roche 10127248001; host or cells: pig heart", "T2 sequence (P00346 25-338)": "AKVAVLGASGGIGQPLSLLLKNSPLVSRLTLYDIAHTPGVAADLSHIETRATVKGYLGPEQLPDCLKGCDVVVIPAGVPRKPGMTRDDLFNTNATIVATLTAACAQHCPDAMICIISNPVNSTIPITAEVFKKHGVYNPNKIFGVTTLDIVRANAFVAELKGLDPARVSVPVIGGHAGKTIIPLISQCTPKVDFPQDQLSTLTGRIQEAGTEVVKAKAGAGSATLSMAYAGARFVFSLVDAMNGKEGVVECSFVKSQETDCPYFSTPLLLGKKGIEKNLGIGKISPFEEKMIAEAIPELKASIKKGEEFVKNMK", "test": "Native MDH enzymatic activity counter-screen", "format": "biochemical, pig", "conditions": "Table 3; compounds added after refolding and EDTA quench; read-out: Biochemical Assay IC50 Native MDH Activity", "outline": "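GroEL/ES-refolded MDH (45 min, 37 °C, no compound) quenched with EDTA before compound addition, so only refolded enzyme is exposed. Activity started with 20 mM sodium mesoxalate and 2.4 mM NADH stock (50 mM Tris pH 7.4, 50 mM KCl, 1 mM DTT); NADH A340 followed to ~90% consumption.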"}}}
{"smiles": "COc1ccc(Cl)cc1C(=O)Nc1ccc(C(C#N)c2ccccc2)cc1", "note": "(centres unmarked) [Compound 84, 5-chloro-N-(4-(cyano(phenyl)methyl)phenyl)-2-methoxybenzamide]", "values": [{"measurement": "IC50", "setting": "HSP60/10", "result": "> 100", "unit": "µM"}, {"measurement": "IC50", "setting": "native MDH", "result": "> 63", "unit": "µM"}]}
